Results published in patent publication US6013632A, “Compounds and their combinations for the treatment of influenza infection” (Emory University, priority 1998, dated 2000).

Legend:
Influenza A/WSN strain [1] = assay: Virus production by HA titer in influenza-infected MDCK cells; format: cell-based; conditions: for Decreased virus production (HA titer): 48 hours post infection; for inhibition at 10000 µM / inhibition at 30000 µM: Influenza A virus, WSN
MDCK cells [2] = conditions: 10 mM
Protocol: GSH was measured in MDCK cells after infection with influenza virus either without or with 10 mM GSH.

MDCK cells [3] = test system: MDCK cells
Influenza A/WSN strain [4] = conditions: 30 mM, normal human SAEC, cultured up to 72 h
Protocol: SAEC were cultured until 70% confluent. Cells were washed and inoculated with influenza A/WSN strain for 2 h. After washing to remove non-adherent virus, cells were cultured for up to 72 h in medium without or with GSH and assayed for virus production by HA titer.

Influenza A/WSN strain [5] = conditions: normal human SAEC, plaque forming assay
MDCK cells [6] = test system: MDCK cells; remark: listed apart in the source
viral proteins = conditions: 35S-methionine labeling after virus infection, without or with added compound
Protocol: To determine whether GSH altered viral protein synthesis and processing, cells were incubated with ^35 S-methionine to label newly synthesized proteins following virus infection either without or with added GSH. Cells were washed and lysed in SDS-PAGE buffer.

MDCK cells [7] = assay: Toxicity to MDCK cells at the tested concentrations; conditions: 10 mM and 30 mM
Influenza A/WSN strain [8] = assay: Plaque-forming units in supernatant of infected MDCK cells; format: cell-based; conditions: 10 mM, 48 h
Protocol: MDCK cells were cultured in 100 mm dishes until 80% confluent. Cells were washed with phosphate-buffered saline and inoculated with Influenza A/WSN strain at a multiplicity of infection of 0.05-0.1 plaque-forming units/cell in serum-free DMEM medium for 2 hours. […] At 48 hours post infection, 100 μl supernatant from each dish was assayed for virus HA titer or plaque-forming units.

## N[C@@H](CCC(=O)N[C@@H](CS)C(=O)NCC(=O)O)C(=O)O [GSH, gamma-L-Glu-L-Cys-Gly]
Influenza A/WSN strain [1]; 1 mM
  Decreased virus production (HA titer): 30%
Influenza A/WSN strain [1]; 5 mM
  Decreased virus production (HA titer): 60%
Influenza A/WSN strain [1]; 10 mM, 48 h post infection
  Inhibition of virus production (HA titer): 56%
Influenza A/WSN strain [1]; 30 mM, 48 h post infection
  Inhibition of virus production (HA titer): 90%
MDCK cells [2]; MDCK cells, absence of virus
  Effect on cellular GSH: did not increase cellular GSH
MDCK cells [2]; virus-infected MDCK cells
  Effect on loss of cellular GSH: did not prevent the loss of GSH
MDCK cells [3]
  Toxicity to the cells: not toxic
Influenza A/WSN strain [4]
  Decrease of virus production (HA titer): greater than 90%
Influenza A/WSN strain [5]
  Confirmation of decreased virus production by number of infectious particles: confirmed
Influenza virus; 10-30 mM co-incubated with virus and MDCK cells for 2 h, washed, then 48 h
  Decrease in virus production: no decrease
Influenza virus; added after incubation of cells with virus, 48 h, MDCK cells
  Decrease of HA titer: 85%
Influenza virus; virus incubated 1 h with up to 30 mM before incubation with MDCK cells
  Effect on virus production after 48 h: no effect
MDCK cells [6]; no virus
  Apoptosis caused by the compound alone: did not cause apoptosis
MDCK cells [6]; up to 30 mM, 48 h
  Effect on apoptosis of virus infected cells: unaffected
Viral proteins
  Patterns or amounts of labeled viral proteins: no detectable differences

## CC(=O)N[C@@H](CS)C(=O)O [NAC, N-Acetyl-L-cysteine, reference compound]
Influenza A/WSN strain [1]; 10 mM, 24 h
  inhibition at 10000 µM: 50%
Influenza A/WSN strain [1]; 10 mM, 48 h post infection
  inhibition at 10000 µM: 62%
Influenza A/WSN strain [1]; 30 mM, 24 h
  inhibition at 30000 µM: 75%
Influenza A/WSN strain [1]; 30 mM, 48 h post infection
  inhibition at 30000 µM: 95%
MDCK cells [7]
  Toxicity to cells: not toxic

## Ascorbate-2-phosphate
Influenza A/WSN strain [1]; 10 mM, 48 h post infection
  Inhibition of virus production (HA titer): 37%
Influenza A/WSN strain [1]; 10 or 30 mM
  Protection against virus titer and infectious particle production: provided protection
Influenza A/WSN strain [8]
  Inhibition of plaque-forming units: 50%
